# Assay results reported in ChEMBL document CHEMBL5346875, “Annual review of KRAS inhibitors in 2022” (Eur J Med Chem, 2023).
# Key:
# [1] = test system: NCI-H358; assay: Antiproliferative activity against human NCI-H358 cells harboring KRAS G12C mutant assessed as inhibition of cell growth; format: functional, cell-based
# [2] = test system: NCI-H23; assay: Antiproliferative activity against human NCI-H23 cells harboring KRAS G12C mutant assessed as inhibition of cell growth; format: functional, cell-based
# [3] = test system: NCI-H358; assay: Antiproliferative activity against human NCI-H358 cells harboring KRAS G12C mutant assessed as inhibition of cell growth by resazurin dye based assay; format: functional
# [4] = Inhibition of ERK phosphorylation in human NCI-H358 cells harboring KRAS G12C mutant by Western blot analysis; format: cell-based
# [5] = test system: GTPase KRas (Homo sapiens), P01116 [G12S]; assay: Covalent modification of GDP-bound recombinant human KRAS G12S mutant at 10 uM incubated for 1 hr by mass spectrometry analysis relative to control
# Sequence of GTPase KRas (Homo sapiens), P01116 [G12S] (P01116 whole entry G12S): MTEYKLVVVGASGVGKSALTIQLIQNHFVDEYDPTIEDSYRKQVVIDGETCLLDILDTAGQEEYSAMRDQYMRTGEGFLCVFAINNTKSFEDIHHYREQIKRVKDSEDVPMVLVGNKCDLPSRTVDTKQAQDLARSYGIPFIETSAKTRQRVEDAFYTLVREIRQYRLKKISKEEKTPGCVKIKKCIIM
# [6] = test system: GTPase KRas (Homo sapiens), P01116 [G12S]; assay: Covalent modification of GDP-bound recombinant human KRAS G12S mutant at 10 uM incubated for 12 hrs by mass spectrometry analysis relative to control
# [7] = biological target: Protein cereblon/GTPase KRas (Homo sapiens, UniProt P01116+Q96SW2, G12C); assay: PROTAC activity at CRBN/KRAS G12C mutant in human NCI-H358 cells assessed as induction of KRAS G12C degradation; format: cell-based
# Sequence of Protein cereblon/GTPase KRas (P01116 whole entry G12C, stated change not applied): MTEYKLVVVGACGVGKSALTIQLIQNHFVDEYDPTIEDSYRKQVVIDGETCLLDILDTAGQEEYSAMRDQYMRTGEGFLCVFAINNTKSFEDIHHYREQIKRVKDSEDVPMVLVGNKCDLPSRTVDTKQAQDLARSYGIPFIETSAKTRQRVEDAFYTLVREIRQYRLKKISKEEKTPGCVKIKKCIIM
# Sequence of Protein cereblon/GTPase KRas (Q96SW2 whole entry, stated change not applied): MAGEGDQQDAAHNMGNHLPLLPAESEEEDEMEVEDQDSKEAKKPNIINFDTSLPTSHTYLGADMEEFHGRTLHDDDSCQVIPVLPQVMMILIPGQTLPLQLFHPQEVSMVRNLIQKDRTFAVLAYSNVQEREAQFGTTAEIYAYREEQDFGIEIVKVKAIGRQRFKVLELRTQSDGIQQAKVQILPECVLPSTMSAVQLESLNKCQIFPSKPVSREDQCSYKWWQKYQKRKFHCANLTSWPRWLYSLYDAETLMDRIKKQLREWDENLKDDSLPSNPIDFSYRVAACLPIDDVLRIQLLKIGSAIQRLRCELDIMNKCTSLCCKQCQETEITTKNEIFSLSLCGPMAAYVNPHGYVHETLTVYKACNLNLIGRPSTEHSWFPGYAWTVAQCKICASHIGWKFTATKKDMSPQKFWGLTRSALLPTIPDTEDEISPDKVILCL
# [8] = test system: BaF3; assay: Antiproliferative activity against mouse BaF3 cells harboring KRAS G12S mutant assessed as inhibition of cell growth incubated for 72 hrs by CellTiter-Glo luminescent assay; format: functional, cell-based; settings: BaF3, 72 h
# [9] = Antiproliferative activity against human KMS-20 cells harboring KRAS G12S mutant assessed as inhibition of cell growth incubated for 72 hrs by CellTiter-Glo luminescent assay; format: functional, cell-based; settings: KMS-20, 72 h
# [10] = test system: BaF3; assay: Antiproliferative activity against mouse BaF3 cells harboring wild type KRAS assessed as inhibition of cell growth incubated for 72 hrs by CellTiter-Glo luminescent assay; format: functional, cell-based; settings: BaF3, 72 h
# [11] = test system: GTPase KRas (Homo sapiens), P01116 [G12S]; assay: Covalent modification of GDP-bound recombinant human KRAS G12S mutant at 10 uM incubated for 10 mins by mass spectrometry analysis relative to control
# [12] = biological target: GTPase KRas (Homo sapiens, UniProt P01116, G12S); assay: Inhibition of GTP-bound KRAS G12S mutant in human A549 cells incubated for 2 hrs by immunoblot analysis; format: cell-based
# Sequence of GTPase KRas (P01116 whole entry G12S): as the sequence (P01116 whole entry G12S) above
compound,measurement,setting,value
C=C(C(=O)N1CCN(c2ncnc3c(F)c(-c4cc(Cl)ccc4OC)c(Cl)cc23)[C@H](C)C1)C(F)(F)F,IC50,[1],780 nM
same,IC50,[2],1550 nM
C=CC(=O)N1CC2(CC(n3nc(-c4ccc5c(cnn5C)c4)c(-c4c(Cl)c(C)cc5[nH]ncc45)c3C)C2)C1 [OPNURASIB],IC50,[3],19 nM
same,IC50,[4],18 nM
CN1CCC[C@H]1COc1nc2c(c(N3CCC4C(=O)OC4C3)n1)CCN(c1cccc3cccc(Cl)c13)C2 (stereo partly drawn),Activity,[5],64%
same,Activity,[6],100%
COc1cc(Cl)c(-c2cc(Cl)ccc2Cl)cc1C(=O)N1CCN(C(=O)/C=C\C(=O)NCCCCCCNc2cccc3c2C(=O)N(C2CCC(=O)NC2=O)C3=O)CC1 (stereo not drawn),IC50,[1],17400 nM
same,DC50,[7],1250 nM
O=C1O[C@H]2CN(c3nc(OCC45CCCN4CCC5)nc4c(F)c(-c5cccc6cccc(Cl)c56)ncc34)CC[C@@H]12,IC50,[8],2400 nM
same,IC50,[9],7500 nM
same,IC50,[10],12500 nM
same,Activity,[11],100%
same,IC50,[12],3000 nM
